From publication PMC11397260, “Towards New Delivery Agents for Boron Neutron Capture Therapy: Synthesis and In Vitro Evaluation of a Set of Fluorinated Carbohydrate Derivatives” (Molecules, 2024) come the findings set out here.

A value given as a limit tells only on which side of the number the result lay.

A word on the IC50: it is the concentration at which inhibition is half-maximal.

In data set [1] the target is T1, GLUT1 (Homo sapiens, UniProt P11166).
T1 construct: host or cells: CAL 27
T1 sequence (P11166 1-492): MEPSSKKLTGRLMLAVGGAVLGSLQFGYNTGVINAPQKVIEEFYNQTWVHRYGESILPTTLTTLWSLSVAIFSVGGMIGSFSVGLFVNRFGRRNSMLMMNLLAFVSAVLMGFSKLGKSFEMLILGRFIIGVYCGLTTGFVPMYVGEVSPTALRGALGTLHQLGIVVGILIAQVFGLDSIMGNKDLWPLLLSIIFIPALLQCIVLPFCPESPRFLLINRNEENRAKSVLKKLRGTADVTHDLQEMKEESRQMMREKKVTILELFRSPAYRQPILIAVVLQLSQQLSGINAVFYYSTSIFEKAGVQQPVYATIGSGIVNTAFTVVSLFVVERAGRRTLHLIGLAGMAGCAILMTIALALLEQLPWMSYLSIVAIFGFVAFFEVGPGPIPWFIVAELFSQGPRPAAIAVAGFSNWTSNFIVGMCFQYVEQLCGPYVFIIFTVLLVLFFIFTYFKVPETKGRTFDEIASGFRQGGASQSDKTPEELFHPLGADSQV
Description: cis-inhibition assay of [14C]-D-glucose uptake (GLUT1 affinity) in CAL 27 cells. To be noted: incubation time 5 min. The class given is cell-based. The source says: GLUT affinity: In a strategy targeting the GLUTs, it is important to study whether the monosaccharide delivery agents will be able to compete for the transporters with the high D-glucose levels found in blood. For these purposes, we utilized our previously developed cis-inhibition assay in the CAL 27 cell line. In addition to having accurate protocols for assessment of GLUT-affinity, we have previously studied the GLUT1 expression and verified its function in the CAL 27 cell line. Thus, a strong foundation was available for the current study and we employed an identical protocol herein in the assessment of GLUT affinity, i.e., in assessing to which extent the delivery agents will be able to compete for the GLUTs against the natural substrate D-glucose.
(§1) The CAL 27 (ATCC CRL-2095) cells used in all assays were acquired from ATCC (Manassas, VA, USA) and cultured in Dulbecco’s Modified Eagle Medium (DMEM) supplemented with L-glutamine (2.0 mM), heat-inactivated fetal bovine serum (10%), and penicillin (50 U/mL)-streptomycin (50 μg/mL) at 37 °C with 5% CO2 and 95% relative humidity.
The GLUT1 affinity assay was conducted following our previously established protocol. Stock solutions of the glycoconjugates were prepared in DMSO. From the stock solutions, the samples employed in the study were prepared by diluting the stock solutions in glucose-free HBSS-buffer to reach concentrations of 0.1–1800 μM. The cells were incubated at RT for 5 min with glycoconjugates 1–4, BSH or BPA over the concentration range given above. The glucose-free HBSS buffer as such was used as a blank control. In more detail, the solutions included 1.8 μM ([…]) of [^14C]-D-glucose in 250 μL of glucose-free HBSS (Hanks’ balanced salt solution). Ice-cold buffer was used for quenching. Cell lysis was performed using 0.1 M NaOH (250 μL) and then mixed with an emulsifier safe cocktail (1.0 mL) (PerkinElmer, Waltham, MA, USA). The radioactivity was measured with a liquid scintillation counter (MicroBeta2 counter, PerkinElmer, Waltham, MA, USA), and the IC50 values were calculated through nonlinear regression analysis.

The subject of data set [2] is CAL 27 cells. The data set is described as follows: Boron delivery capacity (boron uptake) by ICP-MS. The class given is cell-based, human. To be noted: 10–400 μM, 5 min and 120 min, compared with BPA and BSH and within the series. How it is done:
Boron delivery capacity: A central property of boron delivery agents is their boron delivery capacity. […] Herein, we studied the boron delivery capacity at two time points (5 min, and 120 min) over the concentration range of 10–400 μM (see summary in Figure 4). Our previously employed protocol was utilized in order to be able to compare the results to those obtained earlier. In short, after quenching of the incubation, washing, lysis, and digestion with nitric acid, the boron content could be determined by ICP-MS.
as §1
The boron uptake studies were performed according to our earlier reported protocol. The samples used in the boron uptake studies were prepared as described above for the affinity studies. The cells were preincubated. Glycoconjugates 1–4 at various concentrations (10–400 μM in 250 μL of HBSS) were added, and incubation continued for […] 120 min at RT. […] Milli-Q water (USF Elga Purelab Ultra, Veolia Water Technologies, High Wycombe, UK) was added to bring the sample volume to 10 mL, and the boron content was measured in triplicates using ICP-MS. […]

The nature of data set [3]: Plasma stability, human plasma. Type of data set: in vitro ADME. The conditions noted are these: 50 μM. How it is done: (§2) These studies provide important insights into the stability and behavior of the delivery agent in a biological setting, which is a key factor at later stages of the development pipeline. The serum stability studies were performed in both human and mouse plasma at a set concentration of 50 μM over a time period of 24 h. Propantheline (5 μM) was utilized as a control substrate for validating the assay. […] In human plasma, the stability profile was distinct. […] While the boron delivery agent 4 does decompose in human plasma over time, the rate at which this occurs is acceptable when taking into account that the recommended guidelines for FDG imaging, thus tumor delivery, is between 55–75 min post administration. Nevertheless, the ortho-carboranylmethyl-substituent is likely to affect the pharmacokinetic properties of the delivery agents and thus comprehensive biodistribution studies will be needed in the future to assess these factors in more detail.
10 mM working solutions of the test compound was prepared in DMSO and a 1 mM working solution of the control compound propantheline was prepared in acetonitrile. 4 µL of working solutions was spiked to 796 µL of pre-incubated plasma to reach a final concentration of 50 µM or 5 µM. The final concentration of solvent was 0.5%. 50 µL aliquots of the spiked plasma were added into new tubes for 1, 4, 8 and 24 h and incubated at 37 °C water bath with shaking at 60 rpm. The assay was performed in duplicate. The reaction was stopped by adding 300 µL of RT quench solution (acetonitrile containing internal standards (IS, 100 nM Alprazolam, 500 nM Labetalol, and 2 µM Ketoprofen)) to the spiked plasma samples at the appointed time points. […] Peak area ratios were determined from extracted ion chromatograms. Percent compounds remaining at each time point were calculated by the following equation:Remaining Percentage t h (%) = Peak Area Ratio t h/Peak Area Ratio 0 h × 100 where Peak Area Ratio t h is the peak area ratio of control and test compound at t h; Peak Area Ratio 0 h is the peak area ratio of control and test compound at zero time point.

Data set [4] can be described thus: Plasma stability, mouse plasma. Type of data set: in vitro ADME. The conditions noted are these: 50 μM. As to the method:
as §2, with “Nevertheless, the ortho-carboranylmethyl-substituent is likely to affect the pharmacokinetic properties of the delivery agents and thus comprehensive biodistribution studies will be needed in the future to assess these factors in more detail.” left out
10 mM working solutions of the test compound was prepared in DMSO and a 1 mM working solution of the control compound propantheline was prepared in acetonitrile. […] Peak area ratios were determined from extracted ion chromatograms. Percent compounds remaining at each time point were calculated by the following equation:Remaining Percentage t h (%) = Peak Area Ratio t h/Peak Area Ratio 0 h × 100 where Peak Area Ratio t h is the peak area ratio of control and test compound at t h; Peak Area Ratio 0 h is the peak area ratio of control and test compound at zero time point.

Data set [5] in a line: Plasma protein binding, equilibrium dialysis, mouse plasma. Type of data set: in vitro ADME. To be noted: 1 μM, results similar in human and mouse. As to the method: (§3) Through the plasma protein binding assay, we sought to provide a baseline for future assessment of the ADME-properties of FDM derivative 4. In more detail, this assay would let us evaluate to which extent the FDM derivative 4 would remain in an unbound state in the presence of plasma proteins. These studies were performed through the standard equilibrium dialysis protocol at the time points of 0 and 6 h employing a concentration of 1 μM. While the studies were performed in both human and mouse plasma, the results were similar in both cases. Being a relatively lipophilic species, it was unsurprising that the FDM derivative 4 bound in significant amounts to the plasma proteins (~97% bound vs. 3% unbound).
The working solutions of test compounds were prepared in DMSO at the concentrations of 10 mM and the working solution of control compound ketoconazole was prepared in DMSO at the concentration of 200 μM. 3 μL of the working solutions were removed to mix with 597 μL of plasma to achieve a final concentration of 1 μM or 50 μM (0.5% DMSO). The plasma samples were vortexed thoroughly. A total of 50 µL of the spiked plasma sample was transferred to 50 μL of blank buffer, and then either incubated for 6 h (37 °C with 5% CO2) or immediately quenched by the addition of 300 μL of RT quench solution (acetonitrile containing internal standards (IS, 200 nM labetalol, 100 nM tolbutamide and 100 nM ketoprofen) to precipitate protein and the mixture was vortex for 5 min.
The dialysis membranes were soaked in ultrapure water for 60 min to separate strips, then in 20% ethanol for 20 min, and finally in dialysis buffer for 20 min. The dialysis apparatus was assembled according to the manufacturer’s instructions. Each cell was filled with 120 μL of spiked plasma sample and dialyzed against equal volume of dialysis buffer (PBS). The assay was performed in duplicate. The dialysis plate was sealed and incubated in an incubator at 37 °C with 5% CO2 at 100 rpm for 6 h. […]
(In general: Equilibrium dialysis compares concentrations on both sides of a semipermeable membrane.)

Data set [6] in a line: Plasma protein binding, equilibrium dialysis, human plasma. The class given is in vitro ADME. To be noted: 1 μM, results similar in human and mouse. As to the method:
as §3
The working solutions of test compounds were prepared in DMSO at the concentrations of 10 mM and the working solution of control compound ketoconazole was prepared in DMSO at the concentration of 200 μM. 3 μL of the working solutions were removed to mix with 597 μL of plasma to achieve a final concentration of 1 μM or 50 μM (0.5% DMSO). The plasma samples were vortexed thoroughly. […]

Molecule “2-deoxy-2-fluoro-4-O-carboranylmethyl-D-glucopyranose [Compound 2]” had an IC50 in data set [1] of 57.5 µM. In other words, the double-digit micromolar range.
As to “2-deoxy-2-fluoro-4-O-carboranylmethyl-D-mannopyranose [Compound 4]”, the boron delivery capacity entry in data set [2] is reported as “best delivery agent out of the series synthesized”. Also, the “stability in human plasma” value in data set [3] (1 h) is recorded as “remained stable”. Moreover, the figures for the remained intact in data set [3] (4 h) and in data set [3] (24 h) were 86.7% and 39.5%, respectively. In addition, the results for the conjugate remaining intact in data set [4] (1 h) and in data set [4] (24 h) were 84.7% and 60%, respectively. In addition, the “remained in the bound state” value in data set [5] (6 h mark) is reported as 80–87%. Further, the “bound to plasma proteins” value in data set [5] (equilibrium dialysis) and in data set [6] was ~ 97% in each case. In addition, the unbound in data set [5] (equilibrium dialysis) and in data set [6] was 3% in each case. In data set [1], this molecule displayed an IC50 of 59.5 µM.
As to “2-deoxy-2-fluoro-6-O-carboranylmethyl-D-glucopyranose [Compound 1]”, in data set [1], the IC50 amounted to 78.3 µM. This counts as double-digit micromolar.
In the case of “2-deoxy-2-fluoro-6-O-carboranylmethyl-D-mannopyranose [Compound 3]”, the 50% inhibitory concentration (IC50) in data set [1] turned out to be 62.6 µM.
Consider `OC[C@H]1OC(O)[C@H](O)[C@@H](O)[C@@H]1O` (stereo partly shown) [D -Glc, reference compound], for which the IC50 in data set [1] is > 1000 µM.
